Data: US9024041B2, “P38 MAP kinase inhibitors” (Respivert Ltd., priority 2010, dated 2015)
Entries after “also recorded” stand apart in the source; their conditions may differ. Marks after values point to notes of the source that are not given here.

How the values were obtained:
[1] = tested on: LPS-induced neutrophil accumulation in Balb/c mice; test: LPS-induced neutrophil accumulation in mice; assay type: in vivo; conditions: for % inhibition of Influx / Neutrophil numbers in BAL / % inhibition (neutrophil numbers in BAL): 0.2 mg/mL intra tracheal; for inhibitory effects versus neutrophil accumulation into the BALF (in words): dosed 8 hr prior to LPS challenge
Experimental: LPS-Induced Neutrophil Accumulation in Mice
Non-fasted Balb/c mice were dosed by the intra tracheal route with either vehicle, or the test substance at the indicated times (within the range 2-12 hr) before stimulation of the inflammatory response by application of an LPS challenge. At T=0, mice were placed into an exposure chamber and exposed to LPS. After a further 8 hr the animals were anesthetized, their tracheas cannulated and BALF extracted by infusing and then withdrawing from their lungs 1.0 mL of PBS via the tracheal catheter. Total and differential white cell counts in the BALF samples were measured using a Neubaur haemocytometer. Cytospin smears of the BALF samples were prepared by centrifugation at 200 rpm for 5 min at RT and stained using a DiffQuik stain system (Dade Behring). Cells were counted using oil immersion microscopy.

[2] = tested on: LPS-induced IL-8 release in d-U937 cells; test: LPS-induced IL-8 release in d-U937 cells; assay type: cell-based; conditions: Homo sapiens, dU937, 0.1 μg/mL LPS, 4 hr
Procedure, shortened: (§1)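 U937 cells differentiated with PMA (100 ng/mL, 48–72 hr), pre-incubated with compound 2 hr, then stimulated with 0.1 μg/mL E. coli O111:B4 LPS for 4 hr. Supernatant TNFα and IL-8 measured by sandwich ELISA; REC50 (TNFα) and IC50 (IL-8 inhibition vs vehicle) taken from concentration-response curves.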

[3] = tested on: LPS-induced TNFα release in d-U937 cells; test: LPS-induced TNFα release in d-U937 cells; assay type: cell-based; conditions: Homo sapiens, dU937, 4 h; read-out: LPS/TNFα REC50 d-U937
Procedure, shortened: as §1

[4] = biological target: T1, Recombinant, phosphorylated p38 MAPKγ (MAPK12:Invitrogen) (Homo sapiens, UniProt P53778); test: p38 MAPKγ enzyme inhibition assay (FRET, Z-LYTE); assay type: biochemical; conditions: 2 hr pre-incubation, ATP 100 μM; read-out: Enzyme Inhibition IC50 p38γ
T1 construct: purchased Invitrogen
T1 sequence (P53778 1-367): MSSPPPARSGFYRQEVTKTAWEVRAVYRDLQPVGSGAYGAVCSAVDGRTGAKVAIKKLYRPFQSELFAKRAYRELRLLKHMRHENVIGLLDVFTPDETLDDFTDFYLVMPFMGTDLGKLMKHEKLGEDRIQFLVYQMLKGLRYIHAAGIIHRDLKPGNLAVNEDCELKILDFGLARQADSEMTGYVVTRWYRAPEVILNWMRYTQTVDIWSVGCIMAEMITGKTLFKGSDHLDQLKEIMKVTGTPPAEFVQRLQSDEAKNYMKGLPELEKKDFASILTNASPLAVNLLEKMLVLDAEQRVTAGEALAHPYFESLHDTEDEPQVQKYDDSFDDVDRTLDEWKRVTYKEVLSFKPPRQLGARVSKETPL

[5] = tested on: LPS-induced TNFα release in THP-1 cells; test: LPS-induced TNFα release in THP-1 cells; assay type: cell-based; conditions: Homo sapiens, 3 μg/mL LPS, 4 hr
Procedure, shortened: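 Human monocytic cells were stimulated with 3 μg/mL E. coli LPS for 4 hr. Supernatant TNFα was measured by sandwich ELISA. Inhibition was taken relative to vehicle control, and IC50 derived from the concentration-response curve.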

[6] = tested on: Poly I:C-induced ICAM-1 expression in BEAS2B cells; test: Poly I:C-induced ICAM-1 induction in BEAS2B cells; assay type: cell-based; conditions: Homo sapiens, BEAS-2B, poly I:C 1 μg/mL, 18 hr, read-out: PolyI:C/ICAM1 IC50 BEAS2B
Procedure, shortened: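 Human bronchial epithelial BEAS2B cells were pre-incubated with compound for 2 h, then transfected with poly I:C at 1 μg/mL. Surface ICAM-1 was measured 18 h later by cell-based ELISA (OD450–655), normalised to crystal-violet cell number (OD595). IC50 was taken from the concentration–response curve against vehicle.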

[7] = biological target: T2, p38 MAPKα isoform (MAPK14: Invitrogen) (Homo sapiens, UniProt Q16539); test: p38 MAPKα enzyme inhibition assay (FRET, Z-LYTE, via MAPKAP-K2 activation); assay type: biochemical; conditions: 2 hr pre-incubation, ATP 10.0 μM; read-out: Enzyme Inhibition IC50 p38α
T2 construct: purchased Invitrogen

[8] = tested on: Differentiated U937 cells; test: MTT assay: cell viability on exposure to test compounds; assay type: cell-based, human; conditions: percentage loss of cell viability vs vehicle; for MTT Assay (Viability) 4 h d-U937: 5% FCS; for MTT Assay (Viability) 24 h d-U937: 10% FCS
Procedure, shortened: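 Differentiated U937 cells were pre-incubated with compound for either 4 h in 5% FCS or 24 h in 10% FCS, then given MTT for 1 h. Formazan was dissolved in DMSO and read at 550 nm. Viability loss is expressed as % versus 0.5% DMSO vehicle, so an apparent gain appears as a negative value.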

T2 sequence (Q16539 whole entry, canonical isoform): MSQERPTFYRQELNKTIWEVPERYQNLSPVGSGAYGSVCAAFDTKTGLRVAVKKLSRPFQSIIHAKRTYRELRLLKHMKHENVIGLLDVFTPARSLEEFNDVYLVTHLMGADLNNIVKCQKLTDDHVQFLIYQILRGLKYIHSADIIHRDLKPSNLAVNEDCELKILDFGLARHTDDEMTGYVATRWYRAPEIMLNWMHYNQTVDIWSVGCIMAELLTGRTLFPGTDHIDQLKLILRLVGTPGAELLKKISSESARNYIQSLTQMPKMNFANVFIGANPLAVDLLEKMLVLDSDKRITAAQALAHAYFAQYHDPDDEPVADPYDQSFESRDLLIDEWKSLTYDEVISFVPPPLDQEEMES

| Structure (SMILES) | % inhibition of Influx ([1]; 8 h pre-dose before LPS) [%] | Neutrophil numbers in BAL ([1]; 8 h pre-dose before LPS) | inhibitory effects versus neutrophil accumulation into the BALF (in words) [1] | IC50 [2] [nM] | EC50 [3] [nM] | IC50 [4] [nM] | IC50 [5] [nM] | IC50 [6] [nM] | IC50 [7] [nM] | MTT Assay (Viability) 4 h d-U937 ([8]; 1 μg/mL) [%] | MTT Assay (Viability) 24 h d-U937 ([8]; 1 μg/mL) [%] | MTT Assay (Viability) 4 h d-U937 ([8]; 10 μg/mL) | MTT Assay (Viability) 24 h d-U937 ([8]; 10 μg/mL) | % inhibition (neutrophil numbers in BAL) ([1]; 2 hr pre-dose before LPS) [%] | Neutrophil numbers in BAL ([1]; 2 hr pre-dose before LPS) | % inhibition (neutrophil numbers in BAL) ([1]; 12 h pre-dose before LPS) [%] | Neutrophil numbers in BAL ([1]; 12 h pre-dose before LPS) | inhibition of neutrophil accumulation into the BALF (in words) ([1]; administered 2 and 12 hr prior to LPS challenge) |
| --- | --- | --- | --- | --- | --- | --- | --- | --- | --- | --- | --- | --- | --- | --- | --- | --- | --- | --- |
| COCC(=O)Nc1cc(Oc2ccc(NC(=O)Nc3cc(C(C)(C)C)nn3-c3ccc(CO)c(Cl)c3)c3ccccc23)ccn1 [Example 13, N-(4-(4-(3-(3-tert-Butyl-1-(3-chloro-4-(hydroxymethyl)phenyl)-1H-pyrazol-5-yl)ureido)naphthalen-1-yloxy)pyridin-2-yl)-2-methoxyacetamide] | 43 | 9.9 ± 1.2 × 10^5/mL | inhibitory effects; also recorded: particularly marked | 8.6 | 0.03 | 168 | 1.3 | 2.3 | 10.7 | −28.5 | 27.0 | – | – | – | – | – | – | – |
| COCC(=O)Nc1cc(Oc2ccc(NC(=O)Nc3cc(C(C)(C)C)nn3-c3ccc(OC)nc3)c3ccccc23)ccn1 [Example 16, N-(4-(4-(3-(3-tert-Butyl-1-(6-methoxypyridin-3-yl)-1H-pyrazol-5-yl)ureido)naphthalen-1-yloxy)pyridin-2-yl)-2-methoxyacetamide] | 55 | 6.3 ± 1.2 × 10^5/mL | inhibitory effects; also recorded: particularly marked | 29.6 | 1.2 | 54.3 | 1.2 | 8.1 | 4.5 | −16.7 | −6.2 | – | – | – | – | – | – | – |
| CN(C)C(=O)Nc1cc(Oc2ccc(NC(=O)Nc3cc(C(C)(C)C)nn3-c3ccc(O)cc3)c3ccccc23)ccn1 [Example 34, 3-(4-(4-(3-(3-tert-butyl-1-(4-hydroxyphenyl)-1H-pyrazol-5-yl)ureido)naphthalen-1-yloxy)pyridin-2-yl)-1,1-dimethylurea] | 14 | 12.0 ± 1.7 × 10^5/mL | inhibitory effects | 1.9 | – | 89.3 | 1.5 | 4.4 | 2 | −25.8 | −43.4 | – | – | – | – | – | – | – |
| CC(C)(C)c1cc(NC(=O)Nc2ccc(Oc3ccnc(NC(N)=O)c3)c3ccccc23)n(-c2ccc(S(C)(=O)=O)cc2)n1 [Example 45, 1-(3-tert-butyl-1-(4-(methylsulfonyl)phenyl)-1H-pyrazol-5-yl)-3-(4-((2-ureidopyridin-4-yl)oxy)naphthalen-1-yl)urea] | 24 | 13.2 ± 2.2 × 10^5/mL | inhibitory effects | 0.5 | 0.3 | 48.7 | 2.2 | 30.9 | 18.9 | −14.4 | 13.9 | – | – | – | – | – | – | – |
| CNC(=O)Nc1cc(Oc2ccc(NC(=O)Nc3cc(C(C)(C)C)nn3-c3ccc(O)nc3)c(C)c2C)ccn1 [Example 62, 1-(4-(4-(3-(3-tert-butyl-1-(6-hydroxypyridin-3-yl)-1H-pyrazol-5-yl)ureido)-2,3-dimethylphenoxy)pyridin-2-yl)-3-methylurea] | – | – | – | 14.4 | 2.5 | 20.3 | 2.6 | 24.6 | 14.8 | −1.1 | −2.6 | – | – | – | – | – | – | – |
| CNC(=O)Nc1cc(COc2ccc(NC(=O)Nc3cc(C(C)(C)C)nn3-c3ccc(OC)nc3)c(C)c2C)ccn1 [Example 63, 1-(4-((4-(3-(3-tert-butyl-1-(6-methoxypyridin-3-yl)-1H-pyrazol-5-yl)ureido)-2,3-dimethylphenoxy)methyl)pyridin-2-yl)-3-methylurea] | – | – | – | 125 | 26.3 | > 17500 | 28.3 | 178 | 16.2 | 32.5 | 21.2 | – | – | – | – | – | – | – |
| COCC(=O)Nc1cc(Cc2ccc(NC(=O)Nc3cc(C(C)(C)C)nn3-c3ccc(C)cc3)c3ccccc23)ccn1 [Example 64, N-(4-((4-(3-(3-tert-butyl-1-(p-tolyl)-1H-pyrazol-5-yl)ureido)naphthalen-1-yl)methyl)pyridin-2-yl)-2-methoxyacetamide] | – | – | – | 7.4 | 2.1 | 1650 | 10.9 | 20.1 | 17.1 | – | – | −3.7^b % | 61.6^b % | – | – | – | – | – |
| COCCOCC(=O)Nc1cc(Cc2ccc(NC(=O)Nc3cc(C(C)(C)C)nn3-c3ccc(C)cc3)c3ccccc23)ccn1 [Example 65, N-(4-((4-(3-(3-tert-butyl-1-p-tolyl-1H-pyrazol-5-yl)ureido)naphthalen-1-yl)methyl)pyridin-2-yl)-2-(2-methoxyethoxy)acetamide] | – | – | – | 18.9 | 10.9 | 275 | 10.7 | 62.7 | 1.2 | – | – | −1.5^b % | 55.9^b % | – | – | – | – | – |
| COCC(=O)Nc1cc(C(=O)c2ccc(NC(=O)Nc3cc(C(C)(C)C)nn3-c3ccc(C)cc3)c3ccccc23)ccn1 [Example 66, N-(4-(4-(3-(3-tert-butyl-1-p-tolyl-1H-pyrazol-5-yl)ureido)-1-naphthoyl)pyridin-2-yl)-2-methoxyacetamide] | – | – | – | 171 | 1 | 7360 | 2.9 | 48.4 | 7.3 | – | – | 11.0^b % | 71.1^b % | – | – | – | – | – |
| CCNC(=O)Nc1cc(C(=O)c2ccc(NC(=O)Nc3cc(C(C)(C)C)nn3-c3ccc(C)cc3)c3ccccc23)ccn1 [Example 67, 1-(3-tert-butyl-1-p-tolyl-1H-pyrazol-5-yl)-3-(4-(2-(3-ethylureido)isonicotinoyl)naphthalen-1-yl)urea] | – | – | – | 21.9 | 17.6 | 443 | 6.5 | 13.8 | 18.8 | – | – | −9.9^b % | 8.8^b % | 40 | 10.5 ± 1.5 × 10^5/ml | 20 | 14.2 ± 1.7 × 10^5/ml | marked and long-lasting inhibition |
